This note sets out measurements from PubChem BioAssay (NCI).

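Five compound concentrations were applied to cells in 96-well plates for 48 hours; endpoints were derived by simple linear interpolation of the resulting dose-response curve. TGI: total growth inhibition.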

The subject of the first assay is MDA-MB-231 breast. As to the kind of experiment: inhibition of tumour cell growth, NCI panel, 48 h.
For the molecule `CCN(CCCN(CC)C(=O)Nc1c(C)cccc1C)C(=O)Nc1c(C)cccc1C`, the TGI is above 100 µM.
Still for that read-out and setting: to `CSC(=S)N/N=C(\C)c1ccc(S(=O)(=O)N(C)c2ccccc2)cc1` belongs above 100 µM.
The same measure, in the same setting: to `CCNC(=O)Cc1nc2c(N)ncnc2n1C1OC(CO)C(O)C1O` (stereo unspecified) belongs above 100 µM.
Turning to `CC1(C)C2CCC1(C)[C@H](n1c(=O)n([C@@H]3CC4CCC3(C)C4(C)C)c(=O)n([C@@H]3CC4CCC3(C)C4(C)C)c1=O)C2`, the TGI was above 100 µM.
`Cc1nc(N)c(N2CCN([N+](=O)[O-])CC2)c(=O)[nH]1`: the TGI was above 100 µM.
The same measure, in the same setting: next, `Cc1ccc(S(=O)(=O)N/N=C/C2(c3ccccc3)c3ccccc3-c3ccccc32)cc1`: 20.8 µM; `Oc1ccc([I+]c2ccccc2)cc1O`: above 100 µM; `N#CC12C(=O)N=C(N)C1(C#N)C(c1ccco1)NC1=C2CCCC1` (stereo unspecified): above 100 µM.
On the same count and under the same terms, next, `CC1=NN(c2cccc(Cl)c2)C2(C1=C/C=C/c1ccccc1)C(Cl)C(=O)N2c1nc2ccccc2s1` (stereo unspecified): 58.3 µM.

A further assay deals with SK-OV-3 ovarian. As to the kind of experiment: inhibition of tumour cell growth, NCI panel, 48 h.
For `CC1(C)CCCC2OC2CCC(C)(C)C1=O` (stereo unspecified), the TGI is above 100 µM.
Same read-out and setting: to `COc1ccc2c(c1)/C(=C\c1c(Cl)nc3sc(C)cn13)C(=O)N2` belongs 14.6 µM; to `O=C1c2ccccc2-c2c1c(-c1ccc(F)cc1)nc1ccc3ccccc3c21`, above 100 µM.
The molecule `O=C(/C=C/c1ccc2c(c1)OCO2)CC(=O)C(=O)c1c[nH]c2ccccc12` came in with a TGI above 100 µM.
In turn, `O=C(Nc1nccs1)c1c(O)nc2sccn2c1=O` came in with a TGI above 10 µM.
On the same count and under the same terms, to `O=c1[nH]c(=O)n(C2OC(CO)C(O)C2O)c2nc(-c3ccc(-c4ccccc4)cc3)cnc12` (stereo unspecified) belongs above 100 µM; to `CC1=NN(c2cccc(Cl)c2)C2(SCC(=O)N2c2nc3ccccc3s2)/C1=C\c1ccccc1O` (stereo unspecified), 51.3 µM; to `O=C1NCCN1/N=C/c1c(Cl)n(-c2ccccc2)c2ccccc12`, above 100 µM.
`CCCCCCOc1ccc(C(=O)NOC)cc1` gave a TGI above 100 µM.
The same measure, in the same setting: to `Cc1c(S(=O)(=O)c2ccccc2)c(N)n(CCN(C)C)c1C` belongs above 100 µM.
Molecule `N=C(N)SCc1ccc2c(c1)Sc1ccccc1O2` displayed a TGI of 27 µM.
The molecule `CCCC(=O)OC1CC(n2cc(F)c(=O)[nH]c2=O)OC1COP(=O)(OCC(Cl)(Cl)Cl)OCC(Cl)(Cl)Cl` (stereo unspecified) displayed a TGI above 31.6 µM.
Still for that read-out and setting: next, `O=[N+]([O-])C(/C=C(\Cl)n1nnc2ccccc21)=C(/Cl)n1nnc2ccccc21`: above 100 µM; `CS(=O)(=O)OCC(CCl)(CCl)CCl`: above 100 µM; `CSC(=S)N(C)C`: above 100 µM.
On the same count and under the same terms, next, `COc1ccc2c(C)cc(=O)oc2c1OC`: above 100 µM.
On the same count and under the same terms, to `OCCc1ccsc1-c1sc(-c2cc(CCO)c(-c3sccc3CCO)s2)cc1CCO` belongs 35.8 µM; to `O=c1[nH]c(Nc2nc3ccccc3[nH]2)nc(O)c1-c1ccccc1`, above 100 µM.
In turn, `O=[N+]([O-])c1ccc(Oc2c(Cl)cc(S(=O)(=O)/N=C(\NO)Nc3ccc(Cl)cc3)cc2Cl)cc1` gave a TGI of 31.2 µM.
Same read-out and setting: to `O=C(CC(C(=O)c1ccsc1)c1ccc2c(c1)OCO2)c1ccccc1` (stereo unspecified) belongs above 100 µM; to `CCOC(=O)c1ccc(NCC#CCN2CCOCC2)cc1`, above 100 µM; to `CCN(CCCN(CC)C(=O)Nc1c(C)cccc1C)C(=O)Nc1c(C)cccc1C`, above 100 µM.
Still for that read-out and setting: to `CSC(=S)N/N=C(\C)c1ccc(S(=O)(=O)N(C)c2ccccc2)cc1` belongs above 100 µM; to `CCNC(=O)Cc1nc2c(N)ncnc2n1C1OC(CO)C(O)C1O` (stereo unspecified), above 100 µM; to `COc1ccc(C2=N/C(=C\c3ccccc3)C(=O)O2)cc1`, above 100 µM.
On the same count and under the same terms, next, `Cc1ccc(S(=O)(=O)N/N=C/C2(c3ccccc3)c3ccccc3-c3ccccc32)cc1`: 39.8 µM; `N#CC12C(=O)N=C(N)C1(C#N)C(c1ccco1)NC1=C2CCCC1` (stereo unspecified): above 100 µM.
For `CC1=NN(c2cccc(Cl)c2)C2(C1=C/C=C/c1ccccc1)C(Cl)C(=O)N2c1nc2ccccc2s1` (stereo unspecified), the TGI was above 95.1 µM.

A further assay has as its system BT-549 breast. As to the kind of experiment: inhibition of tumour cell growth, NCI panel, 48 h.
For `CC1(C)CCCC2OC2CCC(C)(C)C1=O` (stereo unspecified), the TGI is above 100 µM.
The same measure, in the same setting: to `COc1ccc2c(c1)/C(=C\c1c(Cl)nc3sc(C)cn13)C(=O)N2` belongs 20.5 µM; to `O=C1c2ccccc2-c2c1c(-c1ccc(F)cc1)nc1ccc3ccccc3c21`, above 100 µM; to `O=C(/C=C/c1ccc2c(c1)OCO2)CC(=O)C(=O)c1c[nH]c2ccccc12`, above 100 µM.
The same measure, in the same setting: to `O=c1[nH]c(=O)n(C2OC(CO)C(O)C2O)c2nc(-c3ccc(-c4ccccc4)cc3)cnc12` (stereo unspecified) belongs above 100 µM; to `O=C1NCCN1/N=C/c1c(Cl)n(-c2ccccc2)c2ccccc12`, 35.9 µM; to `CCCCCCOc1ccc(C(=O)NOC)cc1`, above 100 µM.
On the same count and under the same terms, next, `Cc1c(S(=O)(=O)c2ccccc2)c(N)n(CCN(C)C)c1C`: above 100 µM.
Turning to `N=C(N)SCc1ccc2c(c1)Sc1ccccc1O2`, the TGI stood at 16.1 µM.
Still for that read-out and setting: next, `CC1CCC(C(=O)O)(C(Br)C(=O)O)CC1` (stereo unspecified): above 100 µM; `COc1cc(NS(C)(=O)=O)ccc1Nc1cc(C)[nH]c2ccc3nccc3c12`: above 100 µM; `CCOC(=O)Cn1c(=O)c2nc(SC)sc2n(-c2ccccc2)c1=O`: above 100 µM.
The same measure, in the same setting: next, `CSC(=S)N(C)C`: above 100 µM; `CN(C)c1ccc(S(=O)Nc2ccccc2)cc1` (stereo unspecified): 28.9 µM; `OCCc1ccsc1-c1sc(-c2cc(CCO)c(-c3sccc3CCO)s2)cc1CCO`: 20.3 µM.
Regarding `O=c1[nH]c(Nc2nc3ccccc3[nH]2)nc(O)c1-c1ccccc1`, the TGI was above 100 µM.
The same measure, in the same setting: next, `O=[N+]([O-])c1ccc(Oc2c(Cl)cc(S(=O)(=O)/N=C(\NO)Nc3ccc(Cl)cc3)cc2Cl)cc1`: 25 µM; `CCOC(=O)c1ccc(NCC#CCN2CCOCC2)cc1`: above 100 µM; `CCN(CCCN(CC)C(=O)Nc1c(C)cccc1C)C(=O)Nc1c(C)cccc1C`: above 100 µM.
On the same count and under the same terms, to `CCNC(=O)Cc1nc2c(N)ncnc2n1C1OC(CO)C(O)C1O` (stereo unspecified) belongs above 100 µM; to `CC1(C)C2CCC1(C)[C@H](n1c(=O)n([C@@H]3CC4CCC3(C)C4(C)C)c(=O)n([C@@H]3CC4CCC3(C)C4(C)C)c1=O)C2`, above 100 µM.
On the same count and under the same terms, next, `Cc1nc(N)c(N2CCN([N+](=O)[O-])CC2)c(=O)[nH]1`: above 100 µM.
Molecule `Cc1ccc(S(=O)(=O)N/N=C/C2(c3ccccc3)c3ccccc3-c3ccccc32)cc1` displayed a TGI of 27.7 µM.
For the molecule `Oc1ccc([I+]c2ccccc2)cc1O`, the TGI was above 100 µM.
